The values below come from patent EP3820512B1, “IMMUNOMODULATING COMPOSITIONS COMPRISING OLIGOSACCHARIDE DERIVATIVES” (priority 2018, dated 2020).

One data set deals with T1, TLR2 (Homo sapiens, UniProt O60603).
T1 construct: endogenous in cells; host or cells: THP-1 monocyte cells stimulated with PMA
The data set is described as follows: TLR2 activity in PMA-stimulated THP-1 monocyte cells, ELISA of cell lysate. The data set is classed as cell-based. To be noted: THP-1 cells. As to the method: THP-1 monocyte cells (1×10^5) were stimulated with 200nM of PMA for 48h and treated with different concentrations of test compounds. The TLR2 activity was measured after 24 h from the cell lysate using ELISA.
On the technique in general: In an ELISA, binding on a coated surface is turned into a signal by an enzyme label.

In data set [1] the test system is THP-1 (human monocytic) cells. The data set is described as follows: Cytokine response (IL-1β, TNF-α, IL-10) of THP-1 cells treated with compounds. The data set is classed as cell-based. To be noted: 100-200 µM. As to the method: When THP-1 (human monocytic) cells were treated with 100-200 µM of compounds 8, 14, 17, 23, 29, and 32, they produced an increased IL-1β and TNF-α response, decreased anti-inflammatory cytokine IL-10 (FIG. 4).

Data set [2] concerns human peripheral blood monocytes. In words: IL-10 production in human peripheral blood monocytes. To be noted: after 48 h. The data set is classed as cell-based.
A further data set concerns hPBMC. In words: Cytotoxicity in hPBMC, MTT cell proliferation kit. The data set is classed as cell-based, human. As to conditions: 0.1, 1.0, 10, 100 and 1000 µM, 24h. As to the method: The cells were treated with compounds and incubated for 24h. Cell viability was assessed using MTT cell proliferation kit (Promega).
(Tetrazolium dyes change colour on reduction, which living cells bring about.)

The test system of a further data set is HUVECs. The data set is described as follows: Cytotoxicity in HUVECs, MTT cell proliferation kit. The class given is cell-based, human. To be noted: 100 µM, 24h. As to the method: Selected TLR2/4 antagonist compounds 2, 6, 7, 8, 14, 17 and 32 were evaluated for cytotoxicity in HUVECs at 100 µM concentration. The cells were treated with compounds and incubated for 24h. Cell viability was assessed using MTT cell proliferation kit (Promega). All the compounds were not toxic to HUVECs (FIG. 15).

Data set [3] deals with VEGF induced tube formation in HUVECs. The data set is described as follows: Anti-angiogenic activity, Tube Formation kit, VEGF induced. The data set is classed as cell-based, human. To be noted: VEGF 100ng/mL. As to the method: Selected TLR2/4 antagonist compounds 2, 6, 7, 8, 14, 17 and 32 were evaluated for anti-angiogenic activity using the Tube Formation kit (Cat#3470-096-K). VEGF (100ng/mL) was used as positive control. These compounds have potential applications in diseases associated with pathological angiogenesis such as solid tumor, […], diabetic retinopathy as well as AMD.

Data set [4] deals with hyperoxia induced BPD in mouse pups. In words: Hyperoxia-exposed BPD mouse model (newborn pups). The data set is classed as in vivo. The text has this:
Neonatal mice and humans undergo similar stages of lung development but differ with respect to the duration of each stage and its temporal relationship to gestational age. The lungs of the mouse born at term are in the saccular stage and are surfactant sufficient; this can be considered somewhat akin to a human preterm neonate in the same stage of lung development that has been exposed to a full complement of antenatal steroids (which is known to enhance surfactant production). In terms of mimicking the human condition, the most successful hyperoxia models are those that limit exposure to hyperoxia to the saccular stage of pulmonary development. The mouse BPD model involves exposing newborn mice (postnatal day 1 or PN1) to 100% oxygen till PN4 followed by recovery in room air (RA) for another 10 days.
After the recovery period, their lungs were harvested and processed for quantitative PCR, western blotting, histopathology and ELISA.
After the recovery period, their lungs were harvested and processed for quantitative PCR, western blotting and histopathology and ELISA.
BPD is characterized by large simplified alveoli, inflammation, increased cell death, decreased cell proliferation, dysmorphic capillary configuration, and variable interstitial cellularity and/or fibroproliferation. […] This is determined by measuring the alveolar chord length, septal thickness and radial alveolar count (RAC). In BPD, the alveolar area increases which is characterized by increase in the diameter of the alveolar sacs, the septa become thickened (thus interfering in gaseous exchange) and the RAC, a parameter used to assess the complexity of terminal respiratory unit by pulmonologists, decreases as a result of arrested lung development.

The next data set deals with TLR4 (Homo sapiens, UniProt O00206). The data set is described as follows: TLR4 inhibitory and activating activity in THP-1 cells at low and high concentrations. The data set is classed as cell-based. Set-up: endogenous in cells; host or cells: THP-1 (human monocytic) cells. As to conditions: for % inhibition over control TLR4 / % activation over control TLR4: THP-1 cells.

For data set [5], the system named is P. aeruginosa (ATCC-10145 GFP) infected skin wounds. The data set is described as follows: Murine study of skin wound infection. The class given is in vivo, C57BL6 mice. As to the method:
Five groups of C57BL/6 mice (8-10 weeks old, n = 4) were wounded on the dorsal surface. 25µl containing 10^6 CFU/mL P. aeruginosa in a PBS suspension were pipetted onto the wound and allowed to absorb for at least 3 min. […] Subsequently and for the next 13 days, infected wounds were treated each alternate day with colistin, or with test compounds.
Along with that less focal inflammation is observed in compound treated groups vs PA group.

In data set [6] the test system is normal lung epithelial cells (AT-1). The class given is cell-based, human. To be noted: 1 mM and 2 mM, 48h, trypan blue. As to the method: The cells were treated with compounds and incubated for 48h.

T1 sequence (O60603 21-784): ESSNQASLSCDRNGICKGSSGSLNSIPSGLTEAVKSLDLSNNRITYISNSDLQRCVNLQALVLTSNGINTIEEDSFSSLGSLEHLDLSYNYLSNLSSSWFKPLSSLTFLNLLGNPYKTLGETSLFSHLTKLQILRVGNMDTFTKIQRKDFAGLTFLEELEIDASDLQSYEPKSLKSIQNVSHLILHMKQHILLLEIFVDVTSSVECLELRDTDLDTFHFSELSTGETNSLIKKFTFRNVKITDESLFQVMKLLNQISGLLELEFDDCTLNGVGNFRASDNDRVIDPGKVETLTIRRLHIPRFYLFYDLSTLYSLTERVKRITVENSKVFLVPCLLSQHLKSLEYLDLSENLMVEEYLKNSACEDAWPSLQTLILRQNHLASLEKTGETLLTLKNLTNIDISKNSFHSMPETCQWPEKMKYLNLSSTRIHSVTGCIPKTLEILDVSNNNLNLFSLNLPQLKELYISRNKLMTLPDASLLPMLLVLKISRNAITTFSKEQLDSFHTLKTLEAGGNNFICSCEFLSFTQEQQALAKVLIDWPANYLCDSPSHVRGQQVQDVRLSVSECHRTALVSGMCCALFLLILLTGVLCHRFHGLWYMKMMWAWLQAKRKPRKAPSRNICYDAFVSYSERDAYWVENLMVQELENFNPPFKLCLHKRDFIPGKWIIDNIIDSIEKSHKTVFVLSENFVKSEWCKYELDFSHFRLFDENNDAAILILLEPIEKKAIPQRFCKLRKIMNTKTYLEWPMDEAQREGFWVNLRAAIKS
Chain of TLR4 (O00206 24-839): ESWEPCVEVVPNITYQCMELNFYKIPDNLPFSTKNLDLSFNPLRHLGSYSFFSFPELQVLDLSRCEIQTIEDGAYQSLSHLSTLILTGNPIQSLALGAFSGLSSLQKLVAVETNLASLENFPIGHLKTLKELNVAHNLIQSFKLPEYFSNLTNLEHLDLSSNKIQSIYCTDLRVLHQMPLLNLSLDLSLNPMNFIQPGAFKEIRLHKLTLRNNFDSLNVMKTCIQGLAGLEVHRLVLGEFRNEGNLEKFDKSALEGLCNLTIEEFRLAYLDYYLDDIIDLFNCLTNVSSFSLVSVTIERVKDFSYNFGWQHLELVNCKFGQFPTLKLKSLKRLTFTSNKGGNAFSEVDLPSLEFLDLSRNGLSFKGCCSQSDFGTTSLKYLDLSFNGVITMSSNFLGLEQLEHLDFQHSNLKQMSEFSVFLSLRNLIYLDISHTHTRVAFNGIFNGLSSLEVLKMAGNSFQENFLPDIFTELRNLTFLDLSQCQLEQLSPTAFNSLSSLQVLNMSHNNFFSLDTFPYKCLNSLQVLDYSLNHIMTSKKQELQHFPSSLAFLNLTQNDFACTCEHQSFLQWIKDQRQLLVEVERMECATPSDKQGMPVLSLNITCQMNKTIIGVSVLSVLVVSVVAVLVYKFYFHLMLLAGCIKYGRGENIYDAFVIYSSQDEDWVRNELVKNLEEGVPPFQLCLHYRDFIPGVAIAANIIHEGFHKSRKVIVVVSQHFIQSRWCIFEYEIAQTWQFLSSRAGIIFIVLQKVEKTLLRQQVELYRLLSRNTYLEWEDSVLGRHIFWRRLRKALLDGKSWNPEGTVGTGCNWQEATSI
Chain of TLR4 (Q9Y6Y9 17-160 partner limits assumed): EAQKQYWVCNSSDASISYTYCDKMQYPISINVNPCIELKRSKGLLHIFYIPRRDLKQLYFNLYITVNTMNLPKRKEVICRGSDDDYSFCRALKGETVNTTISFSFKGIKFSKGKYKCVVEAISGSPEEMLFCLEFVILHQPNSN

Consider `CC(=O)NC1[C@H](Oc2ccc(B3OC(C)(C)C(C)(C)O3)cc2)O[C@H](CO)[C@@H](O)[C@@H]1O` (single isomer, unassigned) [Compound 32, p-Pinacoloneboronatephenyl 2-acetamido-2-deoxy-β-D-glucopyranoside], for which the results for the “% inhibition over control TLR2” value on TLR2 (Concentration 1-10 µM) and at TLR2 (Concentration 75-100 µM) were “+++ (+++ means that the % of inhibition or activation is in the range of 75-95%)” and “+ (+ means that the % of inhibition or activation is in the range of 15-25%)”, respectively. Also, in data set [1], the IL-1β response result was “increased”. The TNF-α response entry in data set [1] is “increased”. The “anti-inflammatory cytokine IL-10” value in [1] was “decreased”. Besides, the IL-10 production entry in data set [2] (0.1-1.0 µM) is given as “increase”; in data set [2] (10-100 µM) it was “decrease”. Also, the “cytotoxicity in hPBMC (cell viability)” value in the data set on hPBMC was “not toxic”. Also, the “cytotoxicity in HUVECs (cell viability)” value with HUVECs is on record as “not toxic”. The “VEGF induced tube formation” value in [3] is “significantly decreased”. Moreover, in [4] (neonatal pups with BPD), the “TLR4 inhibition in vivo” value was “inhibit”. For the same compound, the lung architecture entry in [4] (saline (IV) and nanosuspension (IN) formulation) is on record as “restored”. In addition, the “% inhibition over control TLR4” value at TLR4 (Concentration 1-10 µM) and on TLR4 (Concentration 75-100 µM) was “+++ (+++ means that the % of inhibition or activation is in the range of 75-95%)” each time. In addition, on TLR4 (summary in words), the TLR4 modulatory activity result is reported as “concentration dependent TLR4 modulatory activity”. The TLR2/4 antagonist activity entry at TLR4 (summary in words, as shown in Table-1 (FIG. 1), TLR2 and TLR4) is recorded as “potent TLR2/4 antagonists”.

In the case of colistin [reference compound], the “Re-epithelialization and granulation tissue” value in [5] (H&E histology, day 13 post-injury, vs controls, p=0.050 (Colistin, compound 1), p=0.073 (compound 8)) is recorded as “significantly enhanced”. Further, in data set [5] (topical, each alternate day, day 13, compounds 100µM / 100µg /ml, Colistin 4µg/ml), the “closure of P. aeruginosa infected skin wounds” value is reported as “complete closure”.

With `CC(=O)O[C@H]1C(=O)[C@@]2(C)[C@H]([C@H](OC(=O)c3ccccc3)[C@]3(O)C[C@H](OC(=O)[C@H](O)[C@@H](NC(=O)c4ccccc4)c4ccccc4)C(C)=C1C3(C)C)[C@]1(OC(C)=O)CO[C@@H]1C[C@@H]2O` [Taxol, reference compound], the “cytotoxicity in normal lung epithelial cells (AT-1)” value in [6] is recorded as “toxic”.

In the case of `CC(=O)NC1[C@H](Oc2ccc3c(C)cc(=O)oc3c2)O[C@H](CO)[C@@H](O)[C@@H]1O` (single isomer, unassigned) [Compound 29], the “% activation over control TLR2” value on TLR2 (Concentration 1-10 µM) is on record as “++ (++ means that the % of inhibition or activation is in the range of 25-75%)”. The “% activation over control TLR2” value at TLR2 (Concentration 75-100 µM) was “+ (+ means that the % of inhibition or activation is in the range of 15-25%)”. In data set [1], the IL-1β response entry is recorded as “increased”, the TNF-α response result was “increased” and the “anti-inflammatory cytokine IL-10” value is listed as “decreased”. Besides, the “cytotoxicity in normal lung epithelial cells (AT-1)” value in data set [6] is reported as “not toxic”. For the same compound, the “% activation over control TLR4” value at TLR4 (Concentration 75-100 µM) is recorded as “+ (+ means that the % of inhibition or activation is in the range of 15-25%)”.

For `CC(=O)N[C@H]1[C@H](Oc2ccc3nonc3c2)O[C@H](CO)[C@@H](O)[C@H]1O` (stereo in doubt) [Compound 17, N-((2S,3R,4S,5S,6R)-2-(benzo[c][1,2,5]oxadiazol-5-yloxy)-4,5-dihydroxy-6-(hydroxymethyl)tetrahydro-2H-pyran-3-yl)acetamide], on TLR2 (Concentration 1-10 µM), the “% inhibition over control TLR2” value is recorded as “++ (++ means that the % of inhibition or activation is in the range of 25-75%)”. In addition, the “% inhibition over control TLR2” value on TLR2 (Concentration 75-100 µM) is listed as “+++ (+++ means that the % of inhibition or activation is in the range of 75-95%)”. For the same compound, in data set [1], the IL-1β response entry is listed as “increased”, the TNF-α response result was “increased” and the “anti-inflammatory cytokine IL-10” value is “decreased”. The “cytotoxicity in hPBMC (cell viability)” value in the data set with hPBMC is recorded as “not toxic”. Moreover, the “cytotoxicity in HUVECs (cell viability)” value in the data set with HUVECs was “not toxic”. Further, the “VEGF induced tube formation” value in data set [3] is reported as “significantly decreased”. Moreover, the “% activation over control TLR4” value at TLR4 (Concentration 75-100 µM) is listed as “++ (++ means that the % of inhibition or activation is in the range of 25-75%)”.
